This assay deals with Kappa-type opioid receptor (Homo sapiens, UniProt P41145). The assay is described as follows: Agonist activity at human kappa opioid receptor expressed in CHO cells assessed as beta-arrestin2 recruitment by enzyme fragment complementation method. It is filed as cell-based.
Sequence of Kappa-type opioid receptor (P41145 whole entry, the tested form may be a part): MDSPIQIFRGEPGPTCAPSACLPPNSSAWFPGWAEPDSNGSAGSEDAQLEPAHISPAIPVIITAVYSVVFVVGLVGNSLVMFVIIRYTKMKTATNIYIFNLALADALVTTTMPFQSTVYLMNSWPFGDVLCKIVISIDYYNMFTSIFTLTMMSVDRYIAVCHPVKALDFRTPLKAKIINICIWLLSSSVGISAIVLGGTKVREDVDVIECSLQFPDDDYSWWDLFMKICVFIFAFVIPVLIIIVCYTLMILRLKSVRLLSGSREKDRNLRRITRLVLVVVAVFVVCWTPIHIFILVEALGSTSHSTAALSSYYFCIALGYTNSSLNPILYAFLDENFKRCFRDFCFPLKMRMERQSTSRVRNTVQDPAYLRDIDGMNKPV
In the case of `Cc1cc(CSc2nnc(-c3ccccn3)n2Cc2ccco2)ccc1C(F)(F)F`, the concentration for a half-maximal effect (EC50) was 4.13 µM.

`O=C(Nc1ccc(Cl)c(C(F)(F)F)c1)[C@H]1CC=C[C@H]2CCN(Cc3ccccc3)C(=O)[C@@H]12`: the EC50 is greater than 10 µM.

For the molecule `CN(CCc1ccc(Cl)c(Cl)c1)[C@@H]1CCCC[C@H]1N1CCCC1`, the 50% effective concentration (EC50) came to 0.0566 µM.

A word on the EC50: it is the midpoint of the concentration-response curve.

Values taken from ChEMBL document CHEMBL4033764, “Seeking (and Finding) Biased Ligands of the Kappa Opioid Receptor” (ACS Med Chem Lett, 2017).
